Results from patent US5696239A (The Dow Chemical Company, priority 1995, dated 1997).

Assays:
[1] = Biodistribution in a rabbit; format: in vivo; details: Y-90, ligand 10 times molar excess
Procedure: Muscle was calculated using 46% of body weight.
A rabbit was injected in the same manner as the rats with a formulation having Y-90 with Y at 3×10^-4 M and the ligand of Example 10 at 10 times molar excess.

[2] = tested on: osteosarcoma in the right proximal humerus; assay: Treatment of a dog with osteosarcoma; format: in vivo; details: Sm-153 complex, ligand 300 times molar excess; I.V. 0.95 mCi Sm-153 per Kg; one week after injection
Procedure: A dog was presented with an osteosarcoma in the right proximal humerus and walked with significant lameness. A complex was prepared using the ligand of Example 10 with a Sm-153 solution. The concentration of Sm was 3×10^-4 M and the ligand was used with a 300 times molar excess. The specific activity of the Sm-153 was 30 mCi/ml. The dog was given an I.V. injection of this complex containing 0.95 mCi of Sm-153 per Kg body weight of the dog.

[3] = Percent complex determination, yttrium complexes (Sephadex C-25 cation exchange); format: physicochemical; details: for % Complex (10:1), Y: ligand/metal 10:1, pH 7.4
Procedure: Complexes were made by preparing a 0.0003M yttrium solution in water. (YCl3.6H2 O, 303.26 g/mole; Y(OAc)3, 12.1% H2 O). Radioactive YCl3 (Oakridge National Laboratories) was added to give the desired number of counts. Ten μl of ligand solution (at 0.03M) were added to 990 μl of the Y solution, giving a ligand-to-metal ratio of 1:1. (Ten times the amount of ligand solution was used for a 10:1 ligand to metal ratio.) The pH was then adjusted to 7.4 using microliter quantities of hydrochloric acid or sodium hydroxide. The solution was then tested for the amount of complexed yttrium using the cation exchange method given below.
(§1) A disposable 10 ml plastic (Biorad) column was filled with 1 to 2 ml of water-swelled Sephadex™ C-25 cation exchange resin. The water was pressure eluted to the top of the resin. Fifteen μl of the complex (or more if counts were low) were added to the top of the resin. This was followed by 2 ml of 4:1 (V:V) isotonic saline:conc. ammonium hydroxide solution as an eluent which was allowed to drip into a counting tube. This was also pressure eluted to the top of the resin. An additional 2 ml of the eluent were added and the column pressure eluted to remove all liquid. The dried resin was then placed in a third counting tube and the three tubes counted on a NaI well counter using a Canberra multichannel analyzer linked to a computer. The percent complex was determined by dividing the number of counts in the two elutions by the total counts in the elutions plus the column, all times 100. By this method, uncomplexed yttrium was retained on the column.

[4] = In vivo biodistribution of chelates in rats (% dose in organs); details: rat; for % Injected Dose in Liver: 2 hours after i.v. injection; for % dose in the spleen / % dose in the bone / % dose in the blood / % dose in the muscle: 2 hours; for % dose in the bone: 25 times % dose in a femur; for % dose in the blood: blood 6.5% of animal weight; for % dose in the muscle: muscle 46% of body weight
Procedure: Also samarium was injected as samarium chloride in unchelated form.
These animals were placed in cages and fed water and food ad libitum. The animals were acclimated for at least five days before use. Prior to injection of complex, the animals were placed under a heat lamp (15 to 30 minutes) to dilate the tail vein. Then, the animal was placed in a restraining cage, the tail cleaned with an alcohol swipe, and the animal injected (50 to 200 μl) via the tail vein. After injection, the animal was placed in another cage for two hours after which time the animal was sacrificed by cervical dislocation. The animal was then dissected, the parts rinsed with deionized H2 O , patted dry, and weighed into a tared counting vial. Whatever size of injection was made, at least three standards of the same material were prepared and counted with the animal parts.
Complexes were prepared by mixing a solution of ligand and metal then adjusting the pH to 7-8. The amount of metal that was complexed to ligand was determined by cation exchange chromatography. Free metal was retained by the resin, metal in the form of a complex was not.
One-hundred μl of the complexes were injected into the tail vein of three Sprague Dawley rats. Two hours after injection, the rats were killed by cervical dislocation and samples of tissues were taken. The tissues were weighed and the amount of radiation in each tissue determined by measuring the number of counts using a NaI well counter and comparing them to standards. […] The amount in bone was 25 times the % dose in a femur. The examples below differ in the ligand, amount of ligand and amount of metal used. Non-radioactive metal was used to obtain the desired ligand to metal ratios and tracer radioactive metal was used to obtain the biodistribution.

[5] = Complex study: percent yttrium complex after addition of excess metal (lability); format: physicochemical
Procedure: as §1
The 1:1 complex of yttrium with 1-(p-aminobenzyl)diethylenetriaminepentaacetic acid (ABDTPA), a well known bifunctional chelant used in the literature, and with the ligand of Example 2 (Now Ex. XVI) and Example 12 (now Ex. XVII) were prepared using the techniques described earlier. Several 100 microliter aliquots were then withdrawn into separate centrifuge tubes. Excess metal was added such that the total volume change is minimized and the time noted. One-half hour after metal addition, the percent complex was determined by the Sephadex™ C-25 method and this was compared to the original amount of complex. The percent complex versus added metal gives an indication as to the lability of the ligand-metal complex. Results are given below and are compared to the EDTA-yttrium complex.

[6] = Challenge of antibody-complex conjugates with excess DTPA (inertness); format: physicochemical; details: 1000 fold molar excess DTPA, pH 7.4, one hour; CC-46 conjugate of Y-90 complex
Procedure: The purified antibody-complexes were added to HEPES buffer (N-2-hydroxyethylpiperazine-N'-2-ethanesulfonic acid) at pH 7.4 and treated with an appropriate amount of 0.1M DTPA solution (pH 7.4) to ensure a 1000 fold molar excess of DTPA over complex attached to antibody. After one hour an aliquot was removed and the antibody-complex conjugates were separated from low molecular weight substances using gel-filtration.

[7] = Percent complex determination, samarium complexes (Sephadex C-25 cation exchange); format: physicochemical; details: samarium
Procedure: as §1, with “100.” for “100. By this method, uncomplexed yttrium was retained on the column.”
Percent complex determination was made in the same manner as for the yttrium complex.

[8] = Ho-166, ligand 300 times molar excess
[9] = Sm-153, ligand 10 times molar excess
[10] = Sm-153, ligand 300 times molar excess
[11] = metal/ligand molar ratio 250, one-half hour after metal addition
[12] = metal/ligand molar ratio 500, one-half hour after metal addition
[13] = ligand/metal ratio about 1:1 (* footnote)

SMILES: CC(=O)Nc1cc(C(C(=O)O)N(CC(=O)O)CC(=O)O)c(O)c(C(C(=O)O)N(CC(=O)O)CC(=O)O)c1 (stereo not shown) [Example 10, 2,6-BIS{[BIS(CARBOXYMETHYL)-AMINO](CARBOXY)METHYL}-4-(ACETAMIDO)PHENOL]
- activity in blood [1]: 0.68%
- activity in bone [1]: 59%
- activity in liver [1]: 1.1%
- activity in muscle [1]: 1.5%
- activity in spleen [1]: 0.19%
- dog's gait [2]: noticeably improved
- % Complex (10:1), Y [3]: 98%
- % Injected Dose in Liver ([4]; Ho complex, ligand 300 times molar excess): 0.26%
- % dose in the spleen [4, 8]: 0.007%
- % dose in the bone [4, 8]: 52.9%
- % dose in the blood [4, 8]: 0.09%
- % dose in the muscle [4, 8]: 1.1%
- % Injected Dose in Liver ([4]; Sm complex, ligand 300 times molar excess): 0.12%
- % Injected Dose in Liver ([4]; Sm complex, ligand/metal 10:1): 1.3%
- % dose in the spleen [4, 9]: 0.01%
- % dose in the bone [4, 9]: 48.5%
- % dose in the blood [4, 9]: 0.18%
- % dose in the muscle [4, 9]: 0.73%
- % dose in the spleen [4, 10]: 0.005%
- % dose in the bone [4, 10]: 52.7%
- % dose in the blood [4, 10]: 0.05%
- % dose in the muscle [4, 10]: 0.23%
- % Injected Dose in Liver ([4]; Y complex, ligand/metal 10:1): 0.39%

SMILES: Nc1ccc(CC(CN(CCN(CC(=O)O)CC(=O)O)CC(=O)O)N(CC(=O)O)CC(=O)O)cc1 (stereo not shown) [ABDTPA, 1-(p-aminobenzyl)diethylenetriaminepentaacetic acid]
- % Complex ([5]; metal/ligand molar ratio 10, one-half hour after metal addition): 95%
- % Complex [5, 11]: 87%
- % Complex [5, 12]: 70%
- yttrium lost from antibody-complex conjugate [6]: over 98%

SMILES: Nc1cc(CN(CCN(CC(=O)O)CC(=O)O)CC(=O)O)c(O)c(CN(CCN(CC(=O)O)CC(=O)O)CC(=O)O)c1 [Example 12]
- % Complex (10:1), Y [3]: 99%
- % Complex, Y [3, 13]: 98%
- % Complex (10:1), Sm ([7]; ligand/metal 10:1): 98%
- % Complex, Sm [7, 13]: 98%
- % Complex [5, 11]: 90%
- % Complex [5, 12]: 79%
- yttrium lost from antibody-complex conjugate [6]: approximately 39%
